Data: US5866570A, “Treatment of vascular leakage and related syndrome such as septic shock by administration of metalloproteinase inhibitors” (Wisconsin Alumni Research Foundation, priority 1994, dated 1999)
In brackets after ≈: the same amount, converted by molar mass. Several values for one entry are separate records, joined by “and”; a condition that tells them apart may be missing. Identical values can stand only once. Like-named read-outs stand apart in the source and are kept apart here.

How the values were obtained:
[1] = system: Lewis lung LL carcinoma; conditions: cited from earlier work
[2] = at 25° C.; cited from earlier work
[3] = biological target: T1, recombinant human 72 kD type IV collagenase (Oncologix), APMA activated (Homo sapiens, UniProt P08253); experiment: gelatinase assay, Example 11; type: biochemical; conditions: 10 ng enzyme, 2 hours preincubation at 37° C., 20 min assay, 3H collagen substrate; read-out: IC50 for inhibition of the 72 kD collagenase type IV
T1 construct: purchased Oncologix
T1 sequence (P08253 110-660): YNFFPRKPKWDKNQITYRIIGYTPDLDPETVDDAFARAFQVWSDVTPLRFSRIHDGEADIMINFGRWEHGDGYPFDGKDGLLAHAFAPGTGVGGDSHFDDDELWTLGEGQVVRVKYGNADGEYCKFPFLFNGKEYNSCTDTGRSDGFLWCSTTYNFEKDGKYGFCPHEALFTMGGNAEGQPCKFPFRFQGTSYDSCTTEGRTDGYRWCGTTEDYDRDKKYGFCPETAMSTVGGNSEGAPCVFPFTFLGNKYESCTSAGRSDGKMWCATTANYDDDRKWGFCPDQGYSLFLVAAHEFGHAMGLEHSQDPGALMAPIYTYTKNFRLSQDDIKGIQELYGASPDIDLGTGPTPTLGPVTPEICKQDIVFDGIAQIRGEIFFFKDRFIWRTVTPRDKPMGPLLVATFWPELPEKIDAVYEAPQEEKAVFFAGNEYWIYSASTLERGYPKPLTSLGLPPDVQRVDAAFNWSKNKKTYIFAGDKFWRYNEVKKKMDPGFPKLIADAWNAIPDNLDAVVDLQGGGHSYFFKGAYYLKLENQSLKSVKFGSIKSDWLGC
Method: NET-660 Collagen (Rat Type I), N-[Propionate-2-3-^3 H] Propionylated (NEN Dupont) with a specific activity of 0.4 mCi/mg, rat type I Collagen (Sigma), P-aminophenylmercuric acetate, APMA (Sigma), recombinant human 72 kD type IV collagenase (Oncologix) with a specific activity of at least 1000 μg collagen digested/hour/μg enzyme, collagenase buffer (50 mM Tris-HCl, 5 mM CaCl2, 200 mM NaCl, 0.02% Brij-35, pH 7.6), bovine serum albumin (BSA), 250 mM EDTA, and 10% TCA+0.7% tannic acid. The substrate is prepared by mixing the ^3 H collagen with the cold collagen at a 2/3 ratio and diluting in the collagenase buffer. The final assay concentration of the ^3 H collagen is 1% or between 20,000 to 40,000 cpm. Inhibitors are prepared just prior to use by dissolving in DMSO (final assay concentration<1%) or collagenase buffer.
The 72 kD collagenase enzyme is activated with 0.5 mM APMA for 30 min. at 37° C. and 10 ng of enzyme per assay is used. Inhibitors are preincubated with activated enzyme for 2 hours at 37° C. in collagenase buffer. Substrate is then added to enzyme inhibitor mix and the assay is run for 20 min at 37° C. […] Undigested substrate is precipitated with the TCA/tannic acid solution and soluble counts are determined in a scintillation counter.

[4] = system: mouse L cell; conditions: l cells; read-out: ID50 inhibition of colony formation; cited from earlier work
[5] = system: mouse-embryo fibroblasts; conditions: cited from earlier work
[6] = system: S180 tumors; conditions: therapeutic index in vivo; cited from earlier work
[7] = system: LS-MET-5 human colon carcinoma cells; experiment: LS-MET-5 i.v. human colon carcinoma metastasis model in nude mice; type: in vivo
Method: This example evaluates the effect of probimane on the survival of mice which have been injected with LS-MET-5 human colon carcinoma cells. In particular, probimane was given at 26 mg/kg in CMC, 1 intraperitoneal dose/day starting 1 day prior to intravenous injection of 1 million LS-MET-5 human colon carcinoma cells, at either 3 or 5 doses per week. During the first week the treated mice experienced a small weight drop and the dosage was decreased to 10.4 mg/kg. The control mice received CMC only at 10 μl/g.
Dose and Schedule--was suspended in sterile 1% CMC (carboxymethyl cellulose) […] by sonication in a water bath. […] Mice received drug 24 hours prior to injection of cells and each mouse received one dose/day i.p. for 5 consecutive days with 2 days of recovery or 3 consecutive days with 4 days of recovery. Treatment continued until mouse death or sacrifice.
LS-MET-5--human colon carcinoma metastatic variant cell line was developed at Oncologix, Inc. The cells are maintained in culture in DMEM+10% FBS and are dissociated for injection with trypsin/versine. The cells are resuspended in HBSS and 1 million cells injected in 100 μl into the lateral tail vein of the mouse.
Mice--HSD nu/nu female mice 6 weeks old (18-22 g) are weighed, tagged with a metal ear clip, and radomized for treatment or control groups. Mice are weighed daily and the dose of drug or vehicle is calculated.
Superficial metastases in the regional lymph nodes, dorsal thoracic brown fact pad, thigh muscle and on the rib cage begin appearing around day 22. Tumor growth is rapid with small metastases quickly coalescing to form a solid collar of metastases around the neck region of the mouse.
Although we have improved the incidence of mice with metastases by eliminating mice with less than perfect initial i.v. injections, we are still only 90% incidence. The experiment is terminated when the last mouse with evidence of metastases dies. The remaining mice are necropsied for presence of micro-metastases. We have found evidence that cells were indeed injected iv.

[8] = postamputation schedule LL model

In the case of `O=C1CN2CCN3CC(=O)N(CN4CCOCC4)C(=O)[C@H]3[C@H]2C(=O)N1CN1CCOCC1`, the antimetastatic effect [1, 8] is listed as “most effective inhibitor of metastasis”.
In the case of `O=C1CN2CCN3CC(=O)N(CN4CCOCC4)C(=O)[C@H]3[C@@H]2C(=O)N1CN1CCOCC1` (relative stereo), the antimetastatic effect [1, 8] is given as “considerable antimetastatic activity”.
For `O=C1CN2C[C@@H]3C(=O)NC(=O)CN3C[C@@H]2C(=O)N1` (relative stereo) [Compound 23], the antimetastatic effect ([1]; implanted LL carcinoma) is given as “no antimetastatic effects” and the antimetastatic effect ([1]; implanted LL carcinoma, listed as cis-23) is given as “does not exhibit any appreciable antimetastatic effect”.
In the case of `O=C1CN2C[C@@H]3C(=O)N(CN4CCOCC4)C(=O)CN3C[C@@H]2C(=O)N1CN1CCOCC1` (relative stereo) [morpholinomethyl derivative of cis-23], the antimetastatic effect ([1]; implanted LL carcinoma) is given as “inhibits metastasis”.
For `O=C1CN2C[C@H]3C(=O)NC(=O)CN3C[C@@H]2C(=O)N1` [Compound 22], the antimetastatic effect ([1]; implanted LL carcinoma) is given as “no antimetastatic effects”.
For `O=C1CN([C@@H]2C[C@@H](O)[C@@H](O)C[C@@H]2N2CC(=O)NC(=O)C2)CC(=O)N1` [Compound 89, (1β, 2β, 4α, 5α)-4,4'-(4,5-dihydroxy-1,2-cyclohexanediyl)bis(2,6-piperazinedione)], the solubility in water [2] is given as 29.3 mg/mL (≈ 86.1 mM).
For `O=C(O)CN(CCN(CC(=O)O)CC(=O)O)CC(=O)O` [EDTA, ethylenediaminetetraacetic acid], the IC50 [3] was 300 µM.
For `O=C1CN(CCN2CC(=O)NC(=O)C2)CC(=O)N1` [ICRF-154], the IC50 [4] is given as 7.3 µM and the “IC50, inhibition of [3H]thymidine incorporation” value (shortened to “IC50, inhibition”) [5] is given as 2.0 µg/mL.
For `O=C1CN(CCCN2CC(=O)NC(=O)C2)CC(=O)N1` [ICRF-161], the “IC50, inhibition” value [5] is listed as “inactive”.
In the case of `CCC(CN1CC(=O)NC(=O)C1)N1CC(=O)NC(=O)C1` (centres unmarked) [ICRF-192], the IC50 [4] is given as 720 µM.
In the case of `CC(C(C)N1CC(=O)NC(=O)C1)N1CC(=O)NC(=O)C1` (centres unmarked) [ICRF-193], the “calculated ratio of maximum tolerated dose to the dose required for 90% inhibition of S180 tumor growth” value [6] is given as 6.7, the IC50 [4] is given as 0.09 µM and the “IC50, inhibition” value [5] is given as 0.035 µg/mL.
In the case of `CC(C(C)N1CC(=O)NC(=O)C1)N1CC(=O)NC(=O)C1` (centres unmarked) [ICRF-196], the IC50 [4] is given as 150 µM and the “IC50, inhibition” value [5] is given as “inactive”.
With `CC(CN1CC(=O)N(CN2CCOCC2)C(=O)C1)N1CC(=O)N(CN2CCOCC2)C(=O)C1` (centres unmarked) [Probimane, probimane] the “toxicity (body weight)” value ([7]; 26 mg/Kg i.p. during the first week) was “weight drop indicated toxicity”, the “Mean IST” value ([7]; 3×/Week) was 19% and the “Mean Survival” value ([7]; 3×/Week) was 52. The “Median IST” value ([7]; 3×/Week) was 18%, the “Median Survival” value ([7]; 3×/Week) was 47 and the “Day of Death” value ([7]; 3×/Week, 26 then 10.4 mg/kg i.p., single mice) was 43 and 44 and 45 and 46 and 52 and 62 and 63. For the same compound, the “Mean IST” value ([7]; 5×/Week) was 16%, the “Mean Survival” value ([7]; 5×/Week) was 50 and the “Median IST” value ([7]; 5×/Week) was 18%. For the same compound, the “Median Survival” value ([7]; 5×/Week) was 47, the “Incidence of superficial metastases” value ([7]; Day 29, 3×/Week) was 7/11 and the “superficial Mets/Mouse” value ([7]; Day 29, 3×/Week) was 1.1. For the same compound, the “Incidence of superficial metastases” value ([7]; Day 29, 5×/Week) was 5/11, the “superficial Mets/Mouse” value ([7]; Day 29, 5×/Week) was 1.2 and the “Incidence of superficial metastases” value ([7]; Day 30, 3×/Week) was 7/11. The “superficial Mets/Mouse” value ([7]; Day 30, 3×/Week) was 1.9, the “Incidence of superficial metastases” value ([7]; Day 30, 5×/Week) was 10/11 and the “superficial Mets/Mouse” value ([7]; Day 30, 5×/Week) was 1.2. The “Incidence of superficial metastases” value ([7]; Day 31, 3×/Week) was 7/11, the “superficial Mets/Mouse” value ([7]; Day 31, 3×/Week) was 1.9 and the “Incidence of superficial metastases” value ([7]; Day 31, 5×/Week) was 11/11. For the same compound, the “superficial Mets/Mouse” value ([7]; Day 31, 5×/Week) was 1.1, the “Incidence of superficial metastases” value ([7]; Day 32, 3×/Week) was 7/11 and the “superficial Mets/Mouse” value ([7]; Day 32, 3×/Week) was 1.9. For the same compound, the “Incidence of superficial metastases” value ([7]; Day 32, 5×/Week) was 11/11, the “superficial Mets/Mouse” value ([7]; Day 32, 5×/Week) was 1.8 and the “condition of the treated mice” value ([7]; mouse, in vivo) was “pale and grayish in color, with scruffy coats, and were cold to the touch”.
